Laboratory results: ChEMBL document CHEMBL1275440, “In vitro activity of telavancin against resistant gram-positive bacteria” (2008)
≈ marks a conversion by molar mass, not a printed value. Calls of active or inactive are those of the source. The calls are words filed in the database; no cut-off is given here.

Columns and labels:
Streptococcus viridans [1] = test: Antibacterial activity against Streptococcus viridans clinical isolate assessed as susceptibility level by broth microdilution method; type: functional
[2] = system: Streptococcus constellatus; test: Antibacterial activity against Streptococcus constellatus clinical isolate assessed as susceptibility level by broth microdilution method; type: functional
Streptococcus oralis [3] = test: Antibacterial activity against Streptococcus oralis clinical isolate assessed as susceptibility level by broth microdilution method; type: functional
[4] = system: Streptococcus intermedius; test: Antibacterial activity against Streptococcus intermedius clinical isolate assessed as susceptibility level by broth microdilution method; type: functional
Streptococcus mitis [5] = test: Antibacterial activity against Streptococcus mitis clinical isolate assessed as susceptibility level by broth microdilution method; type: functional
Streptococcus agalactiae [6] = test: Antibacterial activity against Streptococcus agalactiae group B clinical isolate assessed as susceptibility level by broth microdilution method; type: functional
Streptococcus pyogenes [7] = test: Antibacterial activity against Streptococcus pyogenes group A clinical isolate assessed as susceptibility level by broth microdilution method; type: functional
Streptococcus pneumoniae [8] = test: Antibacterial activity against multidrug-resistant Streptococcus pneumoniae clinical isolate assessed as susceptibility level by broth microdilution method; type: functional
Streptococcus pneumoniae [9] = test: Antibacterial activity against penicillin resistant Streptococcus pneumoniae clinical isolate assessed as susceptibility level by broth microdilution method; type: functional
Streptococcus pneumoniae [10] = test: Antibacterial activity against penicillin intermediate Streptococcus pneumoniae clinical isolate assessed as susceptibility level by broth microdilution method; type: functional
Streptococcus viridans [11] = test: Antibacterial activity against Streptococcus viridans clinical isolate by broth microdilution method; type: functional
[12] = system: Streptococcus constellatus; test: Antibacterial activity against Streptococcus constellatus clinical isolate by broth microdilution method; type: functional
Streptococcus oralis [13] = test: Antibacterial activity against Streptococcus oralis clinical isolate by broth microdilution method; type: functional
[14] = system: Streptococcus intermedius; test: Antibacterial activity against Streptococcus intermedius clinical isolate by broth microdilution method; type: functional
Streptococcus mitis [15] = test: Antibacterial activity against Streptococcus mitis clinical isolate by broth microdilution method; type: functional
Streptococcus agalactiae [16] = test: Antibacterial activity against Streptococcus agalactiae group B clinical isolate by broth microdilution method; type: functional
Streptococcus pyogenes [17] = test: Antibacterial activity against Streptococcus pyogenes group A clinical isolate by broth microdilution method; type: functional
Streptococcus pneumoniae [18] = test: Antibacterial activity against multidrug-resistant Streptococcus pneumoniae clinical isolate by broth microdilution method; type: functional
Streptococcus pneumoniae [19] = test: Antibacterial activity against penicillin resistant Streptococcus pneumoniae clinical isolate by broth microdilution method; type: functional
Streptococcus pneumoniae [20] = test: Antibacterial activity against penicillin intermediate Streptococcus pneumoniae clinical isolate by broth microdilution method; type: functional

Structure (SMILES) | Activity (Streptococcus pneumoniae [10]) [%] | MIC (Streptococcus viridans [11]) [µg/mL] | MIC50 (Streptococcus viridans [11]) | MIC90 (Streptococcus viridans [11]) | MIC [12] [µg/mL] | MIC50 [12] | MIC90 [12] | MIC (Streptococcus oralis [13]) [µg/mL] | MIC50 (Streptococcus oralis [13]) | MIC90 (Streptococcus oralis [13]) | MIC [14] [µg/mL] | MIC50 [14] | MIC90 [14] | MIC (Streptococcus mitis [15]) [µg/mL] | MIC50 (Streptococcus mitis [15]) | MIC90 (Streptococcus mitis [15]) | MIC50 (Streptococcus agalactiae [16]) [µg/mL] | MIC90 (Streptococcus agalactiae [16]) [µg/mL] | MIC (Streptococcus pyogenes [17]) [µg/mL] | MIC50 (Streptococcus pyogenes [17]) [µg/mL] | further results
O=C(O)c1cn(C2CC2)c2cc(N3CCNCC3)c(F)cc2c1=O | – | – | – | – | – | – | – | – | – | – | – | – | – | – | – | – | – | – | – | – | MIC50 (Enterococcus faecalis): inactive; MIC90 (Enterococcus faecalis): inactive
CO/N=C(\C(=O)N[C@@H]1C(=O)N2C(C(=O)O)=C(CSc3nc(=O)c(O)nn3C)CS[C@H]12)c1csc(N)n1 [CEFTRIAXONE] | 92 | 0.03 (≈ 0.0541 µM) | inactive | inactive | 0.03 (≈ 0.0541 µM) | inactive | inactive | 0.03 (≈ 0.0541 µM) | inactive | inactive | 0.03 (≈ 0.0541 µM) | inactive | inactive | 0.03 (≈ 0.0541 µM) | inactive | inactive | 0.06 (≈ 0.108 µM) | 0.06 (≈ 0.108 µM) | ≤ 0.015 | ≤ 0.015 | Activity (Streptococcus viridans [1]): 75%; Activity [2]: 75%; Activity (Streptococcus oralis [3]): 75%; Activity [4]: 75%; Activity (Streptococcus mitis [5]): 75%; Activity (Streptococcus agalactiae [6]): 96%; Activity (Streptococcus pyogenes [7]): 92%; Activity (Streptococcus pneumoniae [8]): 77%; Activity (Streptococcus pneumoniae [9]): 73%; MIC90 (Streptococcus pyogenes [17]): 0.12 µg/mL (≈ 0.216 µM); MIC50 (Streptococcus pneumoniae [18]): 1 µg/mL (≈ 1.8 µM); MIC90 (Streptococcus pneumoniae [18]): 2 µg/mL (≈ 3.61 µM); MIC50 (Streptococcus pneumoniae [19]): 1 µg/mL (≈ 1.8 µM); MIC90 (Streptococcus pneumoniae [19]): 2 µg/mL (≈ 3.61 µM); MIC50 (Streptococcus pneumoniae [20]): 0.5 µg/mL (≈ 0.902 µM); MIC90 (Streptococcus pneumoniae [20]): 1 µg/mL (≈ 1.8 µM)
CO/N=C(\C(=O)N[C@@H]1C(=O)N2C(C(=O)O)=C(COC(N)=O)CS[C@H]12)c1ccco1 [CEFUROXIME] | 17 | ≤ 0.12 | inactive | inactive | ≤ 0.12 | inactive | inactive | ≤ 0.12 | inactive | inactive | ≤ 0.12 | inactive | inactive | ≤ 0.12 | inactive | inactive | ≤ 0.12 | ≤ 0.12 | ≤ 0.12 | ≤ 0.12 | Activity (Streptococcus pneumoniae [8]): 2%; Activity (Streptococcus pneumoniae [9]): 2%; MIC (Streptococcus agalactiae [16]): ≤ 0.12 µg/mL; MIC90 (Streptococcus pyogenes [17]): 0.25 µg/mL (≈ 0.589 µM); MIC50 (Streptococcus pneumoniae [18]): > 4 µg/mL; MIC90 (Streptococcus pneumoniae [18]): > 4 µg/mL; MIC50 (Streptococcus pneumoniae [19]): > 4 µg/mL; MIC90 (Streptococcus pneumoniae [19]): > 4 µg/mL; MIC50 (Streptococcus pneumoniae [20]): 2 µg/mL (≈ 4.71 µM); MIC90 (Streptococcus pneumoniae [20]): 4 µg/mL (≈ 9.43 µM)
CCC[C@@H]1C[C@@H](C(=O)N[C@@H]([C@H]2O[C@H](SC)[C@H](O)[C@@H](O)[C@H]2O)[C@H](C)Cl)N(C)C1 [CLINDAMYCIN] | 83 | ≤ 0.03 | inactive | inactive | ≤ 0.03 | inactive | inactive | ≤ 0.03 | inactive | inactive | ≤ 0.03 | inactive | inactive | ≤ 0.03 | inactive | inactive | 0.06 (≈ 0.141 µM) | > 0.25 | ≤ 0.03 | ≤ 0.03 | Activity (Streptococcus viridans [1]): 88%; Activity [2]: 88%; Activity (Streptococcus oralis [3]): 88%; Activity [4]: 88%; Activity (Streptococcus mitis [5]): 88%; Activity (Streptococcus agalactiae [6]): 86%; Activity (Streptococcus pyogenes [7]): 98%; Activity (Streptococcus pneumoniae [8]): 73%; Activity (Streptococcus pneumoniae [9]): 76%; MIC90 (Streptococcus pyogenes [17]): 0.06 µg/mL (≈ 0.141 µM); MIC50 (Streptococcus pneumoniae [18]): 0.06 µg/mL (≈ 0.141 µM); MIC90 (Streptococcus pneumoniae [18]): > 0.25 µg/mL; MIC50 (Streptococcus pneumoniae [19]): 0.06 µg/mL (≈ 0.141 µM); MIC90 (Streptococcus pneumoniae [19]): > 0.25 µg/mL; MIC (Streptococcus pneumoniae [20]): 0.06 µg/mL (≈ 0.141 µM); MIC50 (Streptococcus pneumoniae [20]): 0.06 µg/mL (≈ 0.141 µM); MIC90 (Streptococcus pneumoniae [20]): 0.5 µg/mL (≈ 1.18 µM)
CC1(C)S[C@@H]2[C@H](NC(=O)Cc3ccccc3)C(=O)N2[C@H]1C(=O)O [PENICILLIN G] | 0 | ≤ 0.06 | inactive | inactive | ≤ 0.06 | inactive | inactive | ≤ 0.06 | inactive | inactive | ≤ 0.06 | inactive | inactive | ≤ 0.06 | inactive | inactive | ≤ 0.06 | ≤ 0.06 | ≤ 0.06 | ≤ 0.06 | Activity (Streptococcus viridans [1]): 62%; Activity [2]: 62%; Activity (Streptococcus oralis [3]): 62%; Activity [4]: 62%; Activity (Streptococcus mitis [5]): 62%; Activity (Streptococcus agalactiae [6]): 96%; Activity (Streptococcus pyogenes [7]): 93%; MIC (Streptococcus agalactiae [16]): ≤ 0.06 µg/mL; MIC90 (Streptococcus pyogenes [17]): ≤ 0.06 µg/mL; MIC50 (Streptococcus pneumoniae [18]): 2 µg/mL (≈ 5.98 µM); MIC90 (Streptococcus pneumoniae [18]): > 2 µg/mL; MIC (Streptococcus pneumoniae [19]): 2 µg/mL (≈ 5.98 µM); MIC50 (Streptococcus pneumoniae [19]): 2 µg/mL (≈ 5.98 µM); MIC90 (Streptococcus pneumoniae [19]): > 2 µg/mL; MIC50 (Streptococcus pneumoniae [20]): 1 µg/mL (≈ 2.99 µM); MIC90 (Streptococcus pneumoniae [20]): 1 µg/mL (≈ 2.99 µM)
